Measured values taken from patent US12252524B2, “GIP/GLP1 co-agonist compounds” (Eli Lilly and Company, priority 2018, dated 2025).
Numbered stars: 1 amine (or outer) side, 2 acyl side, 3 side chain; on linkers, the order of the positions; unused ones are H or OH. Square brackets hold non-standard residues; d marks the D form. Side chains are listed from the residue outwards. Peptide text beside a SMILES is read from it. * marks the point of attachment. C18 diacid = O=C(O)CCCCCCCCCCCCCCCCC(=O)*; γGlu = O=C(O)[C@H](CCC(=O)[*:2])N[*:1]; AEEA = NCCOCCOCC(=O)O; Aib = CC(C)(N)C(=O)O

What was measured:
[1] = molecular target: T1, human Gcg receptor (Homo sapiens, UniProt P47871); assay: [125I]-Glucagon binding (SPA), human Gcg receptor; details: read-out: hGLcgR Ki, nM (SEM, n)
T1 construct: expressed in transfected cells; crude membranes
T1 sequence (P47871 26-477): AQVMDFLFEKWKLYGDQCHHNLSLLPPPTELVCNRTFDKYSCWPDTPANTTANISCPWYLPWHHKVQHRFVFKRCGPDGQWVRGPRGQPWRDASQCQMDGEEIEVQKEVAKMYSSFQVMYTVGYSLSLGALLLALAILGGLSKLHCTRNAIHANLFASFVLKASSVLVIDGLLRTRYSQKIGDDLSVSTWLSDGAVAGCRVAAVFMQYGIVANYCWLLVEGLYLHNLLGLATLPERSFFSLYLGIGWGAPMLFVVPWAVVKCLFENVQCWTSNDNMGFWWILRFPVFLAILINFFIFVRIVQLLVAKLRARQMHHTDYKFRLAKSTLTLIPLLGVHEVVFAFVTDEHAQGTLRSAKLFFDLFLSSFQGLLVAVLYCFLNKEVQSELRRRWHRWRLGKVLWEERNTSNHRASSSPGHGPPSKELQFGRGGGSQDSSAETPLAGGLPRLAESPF
Procedure, shortened: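 Scintillation counts are taken after membranes and WGA beads incubate and settle for 12 hours at room temperature. Buffer is 25 mM HEPES, pH 7.4, with CaCl2, MgCl2, bacitracin and Tween-20. Ki values, from four-parameter IC50 fits, are geometric means over independent days.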

[2] = molecular target: T2, gastric inhibitory peptide receptor (GIPR) (Homo sapiens, UniProt P48546); assay: cAMP pharmacological functional assay in presence of casein, hGIPR; type: cell-based; details: HEK293 cells expressing hGIPR, 0.1% Casein, geometric mean; read-out: hGIPR cAMP Rel EC50 nM (SEM, n)
T2 sequence (P48546 22-466): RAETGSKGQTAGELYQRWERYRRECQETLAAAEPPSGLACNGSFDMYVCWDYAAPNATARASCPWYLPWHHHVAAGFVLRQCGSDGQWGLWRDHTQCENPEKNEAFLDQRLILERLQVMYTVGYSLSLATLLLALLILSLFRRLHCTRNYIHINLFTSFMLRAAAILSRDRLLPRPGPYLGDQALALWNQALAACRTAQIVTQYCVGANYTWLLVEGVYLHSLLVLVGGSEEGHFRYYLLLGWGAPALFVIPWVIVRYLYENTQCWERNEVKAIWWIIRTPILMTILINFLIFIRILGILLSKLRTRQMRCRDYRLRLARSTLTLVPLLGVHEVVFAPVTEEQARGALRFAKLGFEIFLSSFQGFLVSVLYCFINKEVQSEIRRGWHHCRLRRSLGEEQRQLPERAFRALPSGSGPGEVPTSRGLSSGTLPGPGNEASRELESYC

[3] = molecular target: T3, human GIP receptor (Homo sapiens, UniProt P48546); assay: [125I]-GIP binding (SPA), human GIP receptor; details: read-out: hGIPR Ki, nM (SEM, n)
T3 construct: expressed in transfected cells; crude membranes
T3 sequence (P48546 22-466): T2 sequence (P48546 22-466)

[4] = molecular target: human GLP-1 receptor (GLP-1R) (Homo sapiens, UniProt P43220); assay: cAMP pharmacological functional assay in presence of casein, hGLP-1R; type: cell-based; details: HEK293 cells expressing hGLP-1R, 0.1% Casein, geometric mean; read-out: hGLP1R cAMP Rel EC50 nM (SEM, n)
Sequence of human GLP-1 receptor (GLP-1R) (P43220 24-463): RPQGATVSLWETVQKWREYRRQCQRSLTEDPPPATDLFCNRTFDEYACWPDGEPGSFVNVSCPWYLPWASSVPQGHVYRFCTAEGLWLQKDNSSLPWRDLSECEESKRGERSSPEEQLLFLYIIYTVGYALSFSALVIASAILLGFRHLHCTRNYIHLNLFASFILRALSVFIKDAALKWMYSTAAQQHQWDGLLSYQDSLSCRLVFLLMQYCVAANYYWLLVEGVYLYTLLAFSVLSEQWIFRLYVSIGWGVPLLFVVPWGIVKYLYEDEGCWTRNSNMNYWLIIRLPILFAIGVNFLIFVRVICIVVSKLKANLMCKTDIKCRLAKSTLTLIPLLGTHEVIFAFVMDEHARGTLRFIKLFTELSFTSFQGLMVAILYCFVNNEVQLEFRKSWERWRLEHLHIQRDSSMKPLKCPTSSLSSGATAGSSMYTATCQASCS

[5] = molecular target: human GLP-1R (Homo sapiens, UniProt P43220); assay: [125I]-GLP-1 binding (SPA), human GLP-1 receptor; design: expressed in transfected cells; crude membranes; details: read-out: hGLP1R Ki, (nM) (SEM, n)
Sequence of human GLP-1R (P43220 24-463): as above
Procedure, shortened: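 Ki values are geometric means with SEM over independent replicates on different days, derived from IC50s fitted by four-parameter nonlinear regression. The assay used crude cell membranes in HEPES buffer, pH 7.4, containing CaCl2, MgCl2, bacitracin and TWEEN-20.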

Structure (SMILES) | Ki [1] | EC50 [2] | Ki [3] | EC50 [4] | Ki [5]
CC[C@H](C)[C@H](NC(=O)[C@H](CC(C)C)NC(=O)[C@H](Cc1ccc(O)cc1)NC(=O)[C@H](CCC(=O)O)NC(=O)[C@@H](NC(=O)[C@H](Cc1ccccc1)NC(=O)[C@H](CCC(=O)O)NC(=O)C(C)(C)NC(=O)[C@H](CCC(N)=O)NC(=O)[C@H](C)NC(=O)[C@H](CCCCNC(=O)COCCOCCNC(=O)COCCOCCNC(=O)CC[C@H](NC(=O)CCCCCCCCCCCCCCCCC(=O)O)C(=O)O)NC(=O)[C@H](CCCCN)NC(=O)[C@H](CC(=O)O)NC(=O)[C@H](CC(C)C)NC(=O)[C@H](CC(C)C)NC(=O)[C@@H](NC(=O)[C@H](CO)NC(=O)[C@H](Cc1ccc(O)cc1)NC(=O)[C@H](CC(=O)O)NC(=O)[C@H](CO)NC(=O)[C@@H](NC(=O)[C@H](Cc1ccccc1)NC(=O)[C@@H](NC(=O)CNC(=O)[C@H](CCC(=O)O)NC(=O)C(C)(C)NC(=O)[C@@H](N)Cc1ccc(O)cc1)[C@@H](C)O)[C@@H](C)O)[C@@H](C)CC)[C@@H](C)CC)C(=O)N[C@@H](CCC(=O)O)C(=O)NCC(=O)NCC(N)=O [Example 271] (H-Y[Aib]EGTFTSDYSILLDKK([AEEA-AEEA-γGlu-C18 diacid])AQ[Aib]EFIEYLIEGG-NH2) | > 1150 nM | 0.334 nM | 0.107 nM | 0.0352 nM | 5.09 nM
CC[C@H](C)[C@H](NC(=O)[C@H](CC(C)C)NC(=O)[C@H](Cc1ccc(O)cc1)NC(=O)[C@H](CCC(=O)O)NC(=O)[C@@H](NC(=O)[C@H](Cc1ccccc1)NC(=O)[C@H](C)NC(=O)C(C)(C)NC(=O)[C@H](CCC(N)=O)NC(=O)[C@H](C)NC(=O)[C@H](CCCCNC(=O)COCCOCCNC(=O)COCCOCCNC(=O)CC[C@H](NC(=O)CCCCCCCCCCCCCCCCC(=O)O)C(=O)O)NC(=O)[C@H](CCCCN)NC(=O)[C@H](CC(=O)O)NC(=O)[C@H](CC(C)C)NC(=O)[C@H](CC(C)C)NC(=O)[C@@H](NC(=O)[C@H](CO)NC(=O)[C@H](Cc1ccc(O)cc1)NC(=O)[C@H](CC(=O)O)NC(=O)[C@H](CO)NC(=O)[C@@H](NC(=O)[C@H](Cc1ccccc1)NC(=O)[C@@H](NC(=O)CNC(=O)[C@H](CCC(=O)O)NC(=O)C(C)(C)NC(=O)[C@@H](N)Cc1ccc(O)cc1)[C@@H](C)O)[C@@H](C)O)[C@@H](C)CC)[C@@H](C)CC)C(=O)N[C@@H](C)C(=O)NCC(=O)NCC(N)=O [Example 273] (H-Y[Aib]EGTFTSDYSILLDKK([AEEA-AEEA-γGlu-C18 diacid])AQ[Aib]AFIEYLIAGG-NH2) | 724 nM | 0.079 nM | 0.0698 nM | 0.0352 nM | 1.13 nM
CC[C@H](C)[C@H](NC(=O)[C@H](CC(C)C)NC(=O)[C@H](Cc1ccc(O)cc1)NC(=O)[C@H](CCC(=O)O)NC(=O)[C@@H](NC(=O)[C@H](Cc1ccccc1)NC(=O)[C@H](C)NC(=O)[C@H](CCC(N)=O)NC(=O)[C@H](CCC(N)=O)NC(=O)[C@H](C)NC(=O)[C@H](CCCCNC(=O)COCCOCCNC(=O)COCCOCCNC(=O)CC[C@H](NC(=O)CCCCCCCCCCCCCCCCC(=O)O)C(=O)O)NC(=O)[C@H](CCCCN)NC(=O)[C@H](CC(=O)O)NC(=O)[C@H](CC(C)C)NC(=O)[C@H](CC(C)C)NC(=O)[C@@H](NC(=O)[C@H](CO)NC(=O)[C@H](Cc1ccc(O)cc1)NC(=O)[C@H](CC(=O)O)NC(=O)[C@H](CO)NC(=O)[C@@H](NC(=O)[C@H](Cc1ccccc1)NC(=O)[C@@H](NC(=O)CNC(=O)[C@H](CCC(=O)O)NC(=O)C(C)(C)NC(=O)[C@@H](N)Cc1ccc(O)cc1)[C@@H](C)O)[C@@H](C)O)[C@@H](C)CC)[C@@H](C)CC)C(=O)N[C@@H](CCC(=O)O)C(=O)NCC(=O)NCC(N)=O [Example 294] (H-Y[Aib]EGTFTSDYSILLDKK([AEEA-AEEA-γGlu-C18 diacid])AQQAFIEYLIEGG-NH2) | 629 nM | 0.183 nM | 0.205 nM | 0.185 nM | 2.92 nM
CC[C@H](C)[C@H](NC(=O)[C@H](CC(C)C)NC(=O)[C@H](Cc1ccc(O)cc1)NC(=O)[C@H](CCC(=O)O)NC(=O)[C@@H](NC(=O)[C@H](Cc1ccccc1)NC(=O)[C@H](C)NC(=O)[C@H](Cc1c[nH]cn1)NC(=O)[C@H](CCC(N)=O)NC(=O)[C@H](C)NC(=O)[C@H](CCCCNC(=O)COCCOCCNC(=O)COCCOCCNC(=O)CC[C@H](NC(=O)CCCCCCCCCCCCCCCCC(=O)O)C(=O)O)NC(=O)[C@H](CCCCN)NC(=O)[C@H](CC(=O)O)NC(=O)[C@H](CC(C)C)NC(=O)[C@H](CC(C)C)NC(=O)[C@@H](NC(=O)[C@H](CO)NC(=O)[C@H](Cc1ccc(O)cc1)NC(=O)[C@H](CC(=O)O)NC(=O)[C@H](CO)NC(=O)[C@@H](NC(=O)[C@H](Cc1ccccc1)NC(=O)[C@@H](NC(=O)CNC(=O)[C@H](CCC(=O)O)NC(=O)C(C)(C)NC(=O)[C@@H](N)Cc1ccc(O)cc1)[C@@H](C)O)[C@@H](C)O)[C@@H](C)CC)[C@@H](C)CC)C(=O)N[C@@H](CCC(=O)O)C(=O)NCC(=O)NCC(N)=O [Example 295] (H-Y[Aib]EGTFTSDYSILLDKK([AEEA-AEEA-γGlu-C18 diacid])AQHAFIEYLIEGG-NH2) | > 1000 nM | 0.281 nM | 0.181 nM | 0.116 nM | 4.12 nM
CC[C@H](C)[C@H](NC(=O)[C@H](CC(C)C)NC(=O)[C@H](Cc1ccc(O)cc1)NC(=O)[C@H](CCC(=O)O)NC(=O)[C@@H](NC(=O)[C@H](Cc1ccccc1)NC(=O)[C@H](C)NC(=O)[C@H](CCCCN)NC(=O)[C@H](CCC(N)=O)NC(=O)[C@H](C)NC(=O)[C@H](CCCCNC(=O)COCCOCCNC(=O)COCCOCCNC(=O)CC[C@H](NC(=O)CCCCCCCCCCCCCCCCC(=O)O)C(=O)O)NC(=O)[C@H](CCCCN)NC(=O)[C@H](CC(=O)O)NC(=O)[C@H](CC(C)C)NC(=O)[C@H](CC(C)C)NC(=O)[C@@H](NC(=O)[C@H](CO)NC(=O)[C@H](Cc1ccc(O)cc1)NC(=O)[C@H](CC(=O)O)NC(=O)[C@H](CO)NC(=O)[C@@H](NC(=O)[C@H](Cc1ccccc1)NC(=O)[C@@H](NC(=O)CNC(=O)[C@H](CCC(=O)O)NC(=O)C(C)(C)NC(=O)[C@@H](N)Cc1ccc(O)cc1)[C@@H](C)O)[C@@H](C)O)[C@@H](C)CC)[C@@H](C)CC)C(=O)N[C@@H](CCC(=O)O)C(=O)NCC(=O)NCC(=O)N1CCC[C@H]1C(=O)N[C@@H](CO)C(=O)N[C@@H](CO)C(=O)NCC(N)=O [Example 296] (H-Y[Aib]EGTFTSDYSILLDKK([AEEA-AEEA-γGlu-C18 diacid])AQKAFIEYLIEGGPSSG-NH2) | > 1000 nM | 0.198 nM | 0.444 nM | 0.0867 nM | 3.33 nM
CC[C@H](C)[C@H](NC(=O)[C@H](CC(C)C)NC(=O)[C@H](Cc1ccc(O)cc1)NC(=O)[C@H](CCC(=O)O)NC(=O)[C@@H](NC(=O)[C@H](Cc1ccccc1)NC(=O)[C@H](CCC(=O)O)NC(=O)C(C)(C)NC(=O)[C@H](CCC(N)=O)NC(=O)[C@H](C)NC(=O)[C@H](CCCCNC(=O)COCCOCCNC(=O)COCCOCCNC(=O)CC[C@H](NC(=O)CCCCCCCCCCCCCCCCC(=O)O)C(=O)O)NC(=O)[C@H](CCCCN)NC(=O)[C@H](CC(=O)O)NC(=O)[C@H](CC(C)C)NC(=O)[C@H](CC(C)C)NC(=O)[C@@H](NC(=O)[C@H](CO)NC(=O)[C@H](Cc1ccc(O)cc1)NC(=O)[C@H](CC(=O)O)NC(=O)[C@H](CO)NC(=O)[C@@H](NC(=O)[C@H](Cc1ccccc1)NC(=O)[C@@H](NC(=O)CNC(=O)[C@H](CCC(=O)O)NC(=O)C(C)(C)NC(=O)[C@@H](N)Cc1ccc(O)cc1)[C@@H](C)O)[C@@H](C)O)[C@@H](C)CC)[C@@H](C)CC)C(=O)N[C@@H](C)C(=O)NCC(=O)NCC(N)=O [Example 297] (H-Y[Aib]EGTFTSDYSILLDKK([AEEA-AEEA-γGlu-C18 diacid])AQ[Aib]EFIEYLIAGG-NH2) | > 1240 nM | 0.0451 nM | 0.0958 nM | 0.111 nM | 2.98 nM
